In paper PMC11249012 (Journal of Medicinal Chemistry, 2024):
pIC50: −log10 of the molar value. ≈ marks a conversion by molar mass, not a printed value.

How the values were obtained:
[1] = test system: B16-F10 tumors; test: B16-F10 melanoma model in vivo; set-up: species or system mouse; details: C57BL/6 mice; ZG-126 5 mg/kg, AM-193 0.2 mg/kg, 1,25D 0.25 μg/kg, SAHA 80 mg/kg, gemcitabine 50 mg/kg
Protocol: We were then interested in comparing the efficacy of ZG compounds and other hybrids in tumor models in vivo. We focused initially on the B16-F10 melanoma which is syngeneic with C57BL/6 mice. The efficacy of ZG-126 in vivo in this model was tested in two experiments. […] In a second experiment, we compared the antitumor efficacy of hybrids at ∼0.5 MTD doses. […] All treatments were well tolerated, and body weights were unaffected (Figure 6C).
(§1) Finally, mice were sacrificed, and lungs of 4T1-bearing mice were removed to evaluate the efficiency of treatments on lung metastases.

[2] = test system: macrophage infiltration into 4T1 tumors; test: Immunofluorescence of macrophages in 4T1 tumors (F4/80, Arg1); assay type: in vivo, mouse; details: Figure 8B
Protocol: Inhibition of PD-L1 and CD80/CD86 is directly achieved through the immune checkpoint blockade of their receptors using anti-CTLA-4 and anti-PD-1 antibodies.[69],[70]
Primary tumor tissues were fixed using 4% paraformaldehyde and subsequently dehydrated in sucrose solutions ranging from 10 to 30% for approximately 24 h each. The tissues were then embedded in base molds (Fisherbrand—#22363553) containing an optimal cutting temperature (OCT) compound (Fisher Healthcare—#4585). The tissue blocks were placed immediately on dry ice until the OCT compound solidified, and then they were stored at −80 °C. Prior to IF staining, sections of 5–10 μm were obtained using a Leica CM3050 S cryostat and SuperFrost Plus slides (Fisherbrand—#1255015). The tumor sections were then incubated with blocking buffer [phosphate-buffered saline containing 2% bovine serum albumin, 0.3% Triton X-100, 1% FBS, and 10% goat serum] for 1 h at RT. To detect macrophages in the TME, the sections were incubated with a pan-macrophage rat monoclonal antibody F4/80 (Abcam—#6640) diluted in blocking buffer overnight at 4 °C. Sixteen hours later, tissues were washed 3 times with 100 mM Tris–HCl and then incubated with a secondary goat antirat antibody (Invitrogen—#A11081) for 1 h at RT. […] Subsequently, 4′,6-diamidino-2-phenylindole (DAPI; Invitrogen—#D3571) was used to counterstain the nuclei for 5 min at RT. Finally, the slides were mounted using Fluoromount-G medium (Invitrogen—#00495802) and coverslips (Fisher Scientific—#12545E) and imaged with a Zeiss LSM 710 confocal microscope with ×20 objective. Quantification was carried out by QuPath software (version 0.3.2). F4/80+ macrophages and F4/80+ Arg1+ M2 macrophages were classified based on their fluorescence signal.

[3] = test system: MDA-MB-231 TNBC cells; test: RealTime-Glo cell viability assay, MDA-MB-231 cells; assay type: cell-based, human; details: for cytotoxicity: 100 nM, alone or in combination; for pIC50: Homo sapiens, RealTime-Glo, 24 h, read-out: IC50 (cytotoxicity)
[4] = test system: 4T1 tumors; test: 4T1 TNBC model in vivo (primary tumor and lung metastases); set-up: species or system mouse; details: 4T1 model; for #Surface metastases (lung): 1,25D 0.25 μg/kg, SAHA 80 mg/kg, AM-193 0.2 mg/kg, ZG-126 high 5.0 mg/kg, vehicle 166
Protocol: As 4T1 cells are aggressively metastatic, we can also assess the antimetastatic activity in the same experiment. All treatments were well tolerated, and, as in the B16-F10 model, none induced weight loss or other signs of stress over the course of the experiment (Figure 7A). Treatments reduced the primary tumor burden to varying degrees.
The antimetastatic activity was determined by counting the number of surface lung metastases of duplicate samples using a stereomicroscope. […] This degree of efficacy is remarkable, as in previous experiments, DK-406 reduced the metastatic burden by ∼2-fold.[30]
as §1

[5] = test system: 4T1 cells; test: RealTime-Glo cell viability assay, 4T1 cells; details: for pIC50: Mus musculus, 4T1, 24 h, read-out: IC50 (cytotoxicity)
[6] = test system: 4T1 tumors; set-up: method as in PMID 1540948; details: 4T1 model, previous experiments ref 30; cited from earlier work
[7] = Solubility; assay type: physicochemical
[8] = test system: hyperacetylation of tubulin, H3K9 and H3K27; test: Western blot of tubulin and histone H3 hyperacetylation in B16-F10 cells; assay type: cell-based, mouse; details: SAHA 100 nM
From the text: B16-F10 cells are responsive to 1,25D analogues[45] and HDACi[46],[47] and are therefore widely used in preclinical studies of melanoma solid tumor growth and metastases.[48] Although curable when treated early, melanoma is fatal when invasive. The American Cancer Society projected 97,610 new invasive melanoma cases in the US in 2023 and 7990 deaths. Current treatment options include chemotherapy, surgery, immunotherapy, or single agents targeting mutated genes such as B-RAF or C-KIT.[49]
After 6 h treatments, 4T1, 4T07, or B16-F10 cells were solubilized in lysis buffer (20 mM Tris, pH 8, 150 mM NaCl, 1% Triton X-100, 3.5 mM SDS, and 13 mM deoxycholic acid), and proteins were separated on a 4–15% Tris/glycine/SDS gel (Bio-Rad). Then, the proteins were transferred to a nitrocellulose membrane, followed by blocking in 5% skim milk in Tris-buffered saline (TBS, 1×) solution. […] Finally, signals were detected using Clarity ECL substrates (Bio-Rad) and a ChemiDoc Imaging System. Changes in protein levels were quantified relative to control using Image Lab software (version 6.0.1) after normalization to GAPDH. […]
Figure S2. […] Quantification of the analyses of hyperacetylation in B16-F10 cells of tubulin, H3K9 and H3K27. […]

[9] = in vivo; details: BALB/c, mouse, ip
[10] = target: T1, VDR (Mus musculus, UniProt P48281); test: Cyp24a1 gene induction (VDR agonism) in 4T1 cells; assay type: cell-based; set-up: endogenous in cells; details: Figure 2A
T1 sequence (P48281 1-422): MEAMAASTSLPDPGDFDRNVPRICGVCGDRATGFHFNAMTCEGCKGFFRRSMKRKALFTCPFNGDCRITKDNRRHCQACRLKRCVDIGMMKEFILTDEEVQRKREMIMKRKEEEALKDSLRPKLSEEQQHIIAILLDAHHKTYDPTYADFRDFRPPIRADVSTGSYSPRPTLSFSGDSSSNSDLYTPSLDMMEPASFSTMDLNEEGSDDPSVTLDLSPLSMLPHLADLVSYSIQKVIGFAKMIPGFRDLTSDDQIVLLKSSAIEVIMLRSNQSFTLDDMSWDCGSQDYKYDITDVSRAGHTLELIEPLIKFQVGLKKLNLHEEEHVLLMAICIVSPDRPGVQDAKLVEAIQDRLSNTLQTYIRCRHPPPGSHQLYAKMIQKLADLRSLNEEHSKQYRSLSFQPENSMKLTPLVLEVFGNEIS
Protocol: We first examined the effect of the modified structures on solubility. […] The bifunctionality of ZG compounds was then analyzed in a battery of assays. VDR agonism was determined by evaluating the induction of the Cyp24a1 gene. Cyp24a1 encodes the enzyme that initiates the catabolic degradation of 1,25D in a negative-feedback loop, and its gene transcription is exquisitely sensitive to the presence of the agonist-bound VDR. Agonism was assessed initially in mouse 4T1 cells and in related 4TO7 TNBC cells (Figure 2A,B). […] Apparent potencies were lower than those of DK-406 and AM-193.
RNA extraction was performed with the FavorPrep tissue total RNA mini kit (FAVORGEN Biotech Corporation FATRK 001) as per manufacturer’s instructions. cDNA was obtained from 1 μg of RNA using 5× All-in-One RT MasterMix (Applied Biological Materials (abm) Inc. G485) and diluted 5 times. qPCR was performed with BrightGreen 2× q-PCR MasterMix (abm MasterMix-LR-XL) on a Roche LightCycler 96 system. Expression of targeted genes was normalized to 18 s.

[11] = test system: hyperacetylation of tubulin, H3K9 and H3K27; test: Western blot of tubulin and histone H3 hyperacetylation in 4T1 cells; assay type: cell-based, mouse; details: hybrids 10 μM, SAHA 100 nM, 6 h
Protocol: The potential for compounds as HDACi’s can be rapidly tested in cells in culture by monitoring the hyperacetylation of histone H3 and tubulin. H3 acetylation is controlled by multiple class I enzymes, and the class IIb enzyme HDAC6 regulates tubulin acetylation.[36]−[39] […] (Figure 4A).
Figure 4 Evidence for HDAC inhibition in 4T1 and 4TO7 TNBC cells. Western blots and quantification of triplicate biological replicates analyzing the effects of 1,25D (100 nM), SAHA (100 nM), and hybrids (10 μM) on hyperacetylation of tubulin (A,D), H3K9 (B,E), and H3K27 (C,F) in 4T1 (A–C) and 4TO7 cells (D–F).
After 6 h treatments, 4T1, 4T07, or B16-F10 cells were solubilized in lysis buffer (20 mM Tris, pH 8, 150 mM NaCl, 1% Triton X-100, 3.5 mM SDS, and 13 mM deoxycholic acid), and proteins were separated on a 4–15% Tris/glycine/SDS gel (Bio-Rad). Then, the proteins were transferred to a nitrocellulose membrane, followed by blocking in 5% skim milk in Tris-buffered saline (TBS, 1×) solution. After blocking, the membranes were incubated overnight at 4 °C with the primary antibodies against acetylated tubulin (Sigma-Aldrich—#T7451), tubulin (Sigma-Aldrich—#T9026), acetyl-histone H3(Lys9) (Merck Millipore—#07-352), acetyl-histone H3 (Lys27) (Abcam—#ab4729), total histone H3 (Cell Signaling Technology (CST)—#3638), and GAPDH (Abcam—#ab8245). Then, the membranes were incubated with antimouse (CST—#7076) or antirabbit (CST—#7074) IgG HRP-linked secondary antibodies at recommended concentrations. Finally, signals were detected using Clarity ECL substrates (Bio-Rad) and a ChemiDoc Imaging System. Changes in protein levels were quantified relative to control using Image Lab software (version 6.0.1) after normalization to GAPDH. Western blot experiments were carried out three times.

[12] = test system: 4T1 cells; test: Cytokine and chemokine gene expression in 4T1 cells in vitro; assay type: cell-based, mouse; details: Figure 8A

Structure (SMILES)	#Surface metastases (lung) [4]	solubility [7] [µg/mL]	pIC50 [3]	MTD [9] [mg/kg]	pIC50 [5]	also measured
Nc1ccn([C@@H]2O[C@H](CO)[C@@H](O)C2(F)F)c(=O)n1 [gemcitabine, reference compound]						B16-F10 tumor burden [1]: statistically significant reduction in tumor burden
O=C(CCCCCCC(=O)Nc1ccccc1)NO [SAHA, reference compound]	139					total macrophage infiltration into 4T1 tumors (F4/80 staining) [2]: not; cytotoxicity [3]: did not display significant cytotoxicity; cytotoxicity ([5]; 4T1 cells, 100 nM, alone or in combination): did not display significant cytotoxicity
CCC(CC)(c1ccc(C(=O)NCCCCCC(=O)NO)cc1)c1ccc(OCC(O)C(C)(C)C)c(C)c1 (centres unmarked) [DK-406, reference compound]		4.40 (≈ 8.35 µM)	5.61	1	5.04	reduction of metastatic burden [6]: ~2 fold; tubulin acetylation and histone hyperacetylation [8]: induced very high levels of tubulin acetylation and histone hyperacetylation
CCC(CC)(c1ccc(C(=O)NCCCC(=O)NO)cc1)c1ccc(OCC(O)C(C)(C)C)c(C)n1 (centres unmarked) [ZG-132, 4-(3-(5-(2-Hydroxy-3,3-dimethylbutoxy)-6-methylpyridin-2-yl)pentan-3-yl)-N-(4-(hydroxyamino)-4-oxobutyl)benzamide]		10.71 (≈ 21.4 µM)	6.02	10	5.34	Cyp24a1 induction [10]: did not appear to be a full agonist
CCC(CC)(c1ccc(OCCCCCC(=O)NO)cc1)c1ccc(OCC(O)C(C)(C)C)c(C)n1 (centres unmarked) [AM-193, reference compound]	89		6.30	0.5	6.13	tubulin acetylation [11]: highly efficacious inducer of tubulin acetylation; effect on primary tumor burden ([4]; AM-193 0.2 mg/kg compared with ZG-126 5 mg/kg): less efficacious than the high dose of ZG-126
C=C1/C(=C\C=C2/CCC[C@]3(C)[C@@H]([C@H](C)CCCC(C)(C)O)CC[C@@H]23)C[C@@H](O)C[C@@H]1O [1,25D, 1,25-dihydroxyvitamin D]	114					total macrophage infiltration into 4T1 tumors (F4/80 staining) [2]: significantly reduced; expression of Ccl2, Ccl5, Ccl20, and Cxcl10 [12]: inhibited; expression of the gene encoding interleukin-1α [12]: induced; cytotoxicity [3]: did not display significant cytotoxicity
CCC(CC)(c1ccc(C(=O)NCCCCCC(=O)NO)cc1)c1ccc(OCC(O)C(C)(C)C)c(C)n1 (centres unmarked) [ZG-102, 4-(3-(5-(2-Hydroxy-3,3-dimethylbutoxy)-6-methylpyridin-2-yl)pentan-3-yl)-N-(6-(hydroxyamino)-6-oxohexyl)benzamide]		4.45 (≈ 8.43 µM)	5.66	10	4.25	Cyp24a1 induction [10]: did not appear to be a full agonist
